The supplement of paper PMC10307832

Assays:
Experiment in all cases: relative viability (nuclei count vs DMSO), 5 days (fraction); higher = more cells survive
Crenolanib + Olaparib = compound: CC1(COc2ccc3c(c2)ncn3-c2ccc3cccc(N4CCC(N)CC4)c3n2)COC1 [Crenolanib] + O=C(c1cc(Cc2n[nH]c(=O)c3ccccc23)ccc1F)N1CCN(C(=O)C2CC2)CC1 [Olaparib] (partner 8 µM)
In short: (§1)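 Lung cancer cell lines in 1536-well plates were dosed by pin tool the day after seeding, either with one drug alone or with a fixed anchor-drug dose plus five library-drug doses (not always all listed) in √10 steps. After 5 days, cells were fixed and their nuclei stained in one step (final 0.05% Triton X-100, 1% formaldehyde, 1 ug/ml Hoechst), then counted on 4× images. Relative viability is the nuclei count in treated wells divided by that in vehicle wells. Values are medians of duplicate plates.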

Tivantinib + Crizotinib = compound: O=C1NC(=O)[C@@H](c2cn3c4c(cccc24)CCC3)[C@@H]1c1c[nH]c2ccccc12 [Tivantinib] + C[C@@H](Oc1cc(-c2cnn(C3CCNCC3)c2)cnc1N)c1c(Cl)ccc(F)c1Cl [Crizotinib] (partner 1 µM)
In short: as §1

Tivantinib + Foretinib = compound: O=C1NC(=O)[C@@H](c2cn3c4c(cccc24)CCC3)[C@@H]1c1c[nH]c2ccccc12 [Tivantinib] + COc1cc2c(Oc3ccc(NC(=O)C4(C(=O)Nc5ccc(F)cc5)CC4)cc3F)ccnc2cc1OCCCN1CCOCC1 [Foretinib] (partner 0.25 µM)
In short: as §1

Crenolanib + AZD7762 = compound: CC1(COc2ccc3c(c2)ncn3-c2ccc3cccc(N4CCC(N)CC4)c3n2)COC1 [Crenolanib] + NC(=O)Nc1cc(-c2cccc(F)c2)sc1C(=O)N[C@H]1CCCNC1 [AZD7762] (partner 0.2 µM)
In short: as §1

Row | Cell Line | relative viability (Crenolanib + Olaparib; first compound 0.01 µM) | relative viability (Crenolanib + Olaparib; first compound 0.03162 µM) | relative viability (Crenolanib + Olaparib; first compound 0.1 µM) | relative viability (Crenolanib + Olaparib; first compound 0.3162 µM) | relative viability (Crenolanib + Olaparib; first compound 1 µM) | relative viability (Tivantinib + Crizotinib; first compound 0.01 µM) | relative viability (Tivantinib + Crizotinib; first compound 0.03162 µM) | relative viability (Tivantinib + Crizotinib; first compound 0.1 µM) | relative viability (Tivantinib + Crizotinib; first compound 0.3162 µM) | relative viability (Tivantinib + Foretinib; first compound 0.01 µM) | relative viability (Tivantinib + Foretinib; first compound 0.03162 µM) | relative viability (Tivantinib + Foretinib; first compound 0.1 µM) | relative viability (Tivantinib + Foretinib; first compound 0.3162 µM) | relative viability (Crenolanib + AZD7762; first compound 0.01 µM) | relative viability (Crenolanib + AZD7762; first compound 0.03162 µM) | relative viability (Crenolanib + AZD7762; first compound 0.1 µM) | relative viability (Crenolanib + AZD7762; first compound 0.3162 µM) | relative viability (Crenolanib + AZD7762; first compound 1 µM)
1 | A549 | 0.474 | 0.317 | 0.329 | 0.421 | 0.365 | 0.894 | 0.81 | 0.713 | 0.638 | 0.977 | 1.03 | 0.913 | 0.889 | – | – | – | – | –
2 | COR-L23 | 0.321 | 0.342 | 0.307 | 0.347 | 0.291 | 0.677 | 0.662 | 0.611 | 0.844 | 1.01 | 0.953 | 0.893 | 1.04 | – | – | – | – | –
3 | COR-L 105 | 0.729 | 0.641 | 0.643 | 0.751 | 0.584 | 0.725 | 0.769 | 0.787 | 0.435 | 0.834 | 0.991 | 0.982 | 0.735 | – | – | – | – | –
4 | Calu-6 | 0.596 | 0.494 | 0.529 | 0.643 | 0.556 | 0.795 | 0.799 | 0.665 | 0.826 | 0.931 | 0.924 | 0.806 | 0.725 | – | – | – | – | –
5 | EBC-1 | 0.768 | 0.727 | 0.667 | 0.663 | 0.641 | 0.184 | 0.189 | 0.195 | 0.198 | 0.117 | 0.107 | 0.0799 | 0.0958 | – | – | – | – | –
6 | HCC-44 | 0.983 | 0.941 | 0.976 | 0.98 | 0.991 | 0.766 | 0.915 | 0.773 | 0.787 | – | – | – | – | 1.05 | 0.955 | 1.01 | 1.07 | 0.973
7 | IA-LM | 0.847 | 0.907 | 0.88 | 0.817 | 0.883 | 0.962 | 0.857 | 0.677 | 1.08 | 1.01 | 1.15 | 0.983 | 1.12 | – | – | – | – | –
8 | NCI-H520 | 0.367 | 0.258 | 0.33 | 0.288 | 0.338 | 0.797 | 0.764 | 0.758 | 1.05 | 0.869 | 0.792 | 0.655 | 0.708 | – | – | – | – | –
9 | NCI-H522 | 0.581 | 0.676 | 0.639 | 0.591 | 0.62 | – | – | – | – | – | – | – | – | 1.03 | 0.853 | 0.773 | 0.88 | 0.836
10 | NCI-H661 | 0.719 | 0.803 | 0.681 | 0.811 | 0.81 | 0.914 | 1 | 0.962 | 0.736 | 1.01 | 1.04 | 0.968 | 0.686 | – | – | – | – | –
11 | NCI-H1299 | 0.965 | 0.921 | 0.916 | 0.978 | 0.935 | 0.686 | 0.972 | 0.587 | 0.93 | 1.1 | 1.04 | 1.04 | 1.07 | – | – | – | – | –
12 | NCI-H1395 | 0.495 | 0.453 | 0.543 | 0.439 | 0.45 | – | – | – | – | 1.11 | 1.03 | 0.966 | 0.828 | 0.374 | 0.392 | 0.412 | 0.457 | 0.473
13 | NCI-H1563 | – | – | – | – | – | 0.851 | 0.893 | 0.822 | 0.884 | 0.98 | 0.892 | 0.819 | 0.783 | – | – | – | – | –
14 | NCI-H1623 | – | – | – | – | – | – | – | – | – | 0.87 | 0.745 | 0.818 | – | – | – | – | – | –
15 | NCI-H1648 | 1.08 | – | 0.717 | 0.899 | 0.853 | – | – | – | – | – | – | – | – | 0.666 | – | 0.673 | 0.673 | 0.745
16 | NCI-H1650 | 0.677 | 0.84 | 0.659 | 0.82 | 0.607 | 1.07 | 0.903 | 1.04 | 0.984 | 1.08 | 1.11 | 1.02 | 0.972 | – | – | – | – | –
17 | NCI-H1792 | 0.439 | 0.397 | 0.334 | 0.757 | 0.384 | 1.02 | 0.948 | 0.828 | 0.932 | – | – | – | – | 0.701 | 0.686 | 0.656 | 0.834 | 0.754
18 | NCI-H1793 | 0.993 | 0.947 | 0.889 | 1.13 | 0.762 | – | – | – | – | 0.698 | 0.616 | 0.762 | 0.548 | 0.549 | 0.794 | 0.538 | 0.366 | 0.645
19 | NCI-H2009 | 0.694 | 0.672 | 0.694 | 0.682 | 0.555 | 1.05 | 1.07 | 1.06 | 0.98 | 1.23 | 1.22 | 1.21 | 1.27 | – | – | – | – | –
20 | NCI-H2023 | 0.53 | 0.467 | 0.476 | 0.451 | 0.322 | 0.602 | 0.762 | 0.673 | 0.639 | 0.787 | 0.841 | 0.816 | 0.516 | – | – | – | – | –
21 | NCI-H2228 | 0.76 | 0.833 | 0.684 | 1.13 | 0.686 | 0.449 | 0.481 | 0.427 | 0.337 | – | 0.841 | 0.678 | 0.714 | – | – | – | – | –
22 | NCI-H2342 | 0.445 | 0.484 | 0.411 | 0.445 | 0.494 | – | – | – | – | 1.08 | 1.15 | 0.948 | 0.682 | 0.607 | 0.475 | 0.475 | 0.532 | 0.484
23 | SW 900 | 0.925 | – | 0.8 | 0.959 | 0.979 | – | – | – | – | 0.831 | 0.934 | 0.818 | 0.888 | 0.735 | – | 0.756 | 0.858 | 0.522
